Assay results published in patent US20220079855A1, “GINGSENG-BASED COSMETIC COMPOSITION” (L'OREAL, priority 2018, published 2022).

Test system: stratum corneum of viable human skin (abdominal or breast reduction plastic surgery)
Assay: Desquamating activity: decrease in cohesion of the stratum corneum, histological score on excised human skin maintained under survival conditions
Assay type: cell-based
Settings: score 0-4; for Score 2: (mean ± sd, n = 6): Table 2, applied D0 and D1, analysed D2; for Score (mean ± sd, n = 6): Table 3 (white ginseng study)
Protocol: The study aims to detect the desquamating potential of the combination of active agents according to the invention in simplex solution by observation of the cohesion of the stratum corneum.
The keratolytic effect on excised skin maintained under survival conditions […] was evaluated. The study was carried out on viable human skin resulting from abdominal or breast reduction plastic surgery (6 donors). These skin fragments were placed in inserts, comprising a porous membrane ([…]), themselves positioned on culture wells containing a culture medium as described in Boisnic et al., Journal of Cosmetics and laser therapy, 2010:12:25-31.
The protocol consists in applying the test solutions to skin samples maintained under survival conditions. The products tested are applied in a proportion of 15 μl per 1 cm^2 sample and are not rinsed off. Application is carried out twice, at D0 and then, 24 hours later, at D1. The morphology of the stratum corneum is analysed 48 hours after the first application, at D2, on a biopsy.
The solutions applied are the following: • compound A (plant active agent according to the invention) alone at 0.1% and 0.5% by weight of active material in water, and • compound B alone at 0.3% by weight in water • combination of A at 0.1% and B at 0.3% by weight in water • combination of A at 0.5% and B at 0.3% by weight in water.
By way of comparison, no solution is applied to a sample, referred to as a control sample, and a solution of glycolic acid at 30% by weight in water is applied to another sample. 6 samples were used for each of the tests (controls, compound A and compound B and combinations of A and B).
The histological analysis of the horny layer is carried out on a skin section after staining with hemalaun-eosin (magnification 400). The decrease in the cohesion of the stratum corneum is expressed in the form of a score: • score 0: absence of modification • score 1: slight decrease • score 2: moderate decrease • score 3: large decrease • score 4: very large decrease with exfoliation
A paired Student test (p<0.05) was carried out in order to evaluate the significance of the difference with respect to the control.
The protocol described in Example 2 was reproduced by considering a plant active agent not in accordance with the invention, namely white ginseng which is devoid of ginsenoside Rg3. This active agent considered is the product Ginseng ES, distributed by the company Greentech.

Compound | Score 2: (mean ± sd, n = 6) (Glycolic acid at 30% in H2O) | Score (mean ± sd, n = 6) (Glycolic acid at 30% in H2O) | Score 2: (mean ± sd, n = 6) (Compound B at 0.3% in H2O) | Score (mean ± sd, n = 6) (Compound B at 0.3% in H2O)
O=C(O)CO [Glycolic acid, glycolic acid] | 3.10 ± 0.12 | 2.14 ± 0.41 |  | 
CCCCCCCC(=O)c1ccc(O)c(C(=O)O)c1 [Compound B, 5-n-Octanoylsalicylic acid] |  |  | 2.14 ± 0.52 | 1.75 ± 0.19
